The values that follow come from ChEMBL document CHEMBL1201862, “PubChem BioAssay data set” (2004).

Test systems include OVCAR-5; PC-3; NCI/ADR-RES; CAKI-1; RPMI-8226; HCC 2998; HCT-15; UACC-257; SF-539; SK-MEL-28; MCF7; SNB-75; HL-60; MDA-N; DU-145; NCI-H226; NCI-H522; HCT-116; SR; 786-0.
What all share (experiment): DTP human tumour cell line panel, 48 h

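How tested: cells in 96-well plates exposed to compound for 48 hours at five concentrations. GI50 = concentration required for 50% inhibition of growth.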 Activity calls are given as the source filed them. No stated cut-off is given here; in the data, active = GI50 up to about 1.1 µM and inactive = higher.

As a reminder, the GI50 is the concentration that inhibits growth by half.

As for `CCOC(=O)c1csc(NC(=O)CN2CCCCC2)n1`, the GI50 in the experiment on OVCAR-5, with PC-3, in the experiment on NCI/ADR-RES, in the experiment on CAKI-1, in the experiment on RPMI-8226 and in the experiment on HCC 2998 was > 100 µM (inactive) in each case. Also, the GI50 in the experiment with HCT-15 was more than 100 µM; in the experiment on UACC-257, > 100 µM (inactive); with SF-539 it was > 100 µM (inactive); in the experiment on SK-MEL-28, > 100 µM (inactive); in the experiment with MCF7, > 100 µM (inactive); with SNB-75, > 100 µM (inactive). In addition, the GI50 in the experiment with HL-60, in the experiment with MDA-N and with DU-145 was > 100 µM (inactive) throughout.
Take `CCOC(=O)C(=O)Nc1c(CC)cccc1C(C)CC` (stereo unspecified): the GI50 in the experiment on OVCAR-5, with NCI-H226, with CAKI-1, in the experiment with NCI-H522, in the experiment on RPMI-8226 and in the experiment with HCC 2998 was > 100 µM (inactive) throughout. Moreover, the GI50 with HCT-15 is more than 100 µM; in the experiment on UACC-257, > 100 µM (inactive); in the experiment on SF-539, > 100 µM (inactive); in the experiment on SK-MEL-28, > 100 µM (inactive); in the experiment on HCT-116, > 100 µM (inactive); in the experiment with SNB-75 it was > 100 µM (inactive). The GI50 with HL-60 and in the experiment on SR was > 100 µM (inactive) each time.
As to `CC(=O)Nc1ccc(C2=N/C(=C\c3ccc(Cl)cc3)C(=O)O2)cc1`, the GI50 in the experiment on OVCAR-5 was > 100 µM (inactive); in the experiment with NCI-H226, > 100 µM (inactive); with CAKI-1 it was > 100 µM (inactive); with NCI-H522, 25.4 µM (inactive); with RPMI-8226, 40.2 µM (inactive); in the experiment on HCC 2998, 20 µM (inactive). Further, the GI50 in the experiment on HCT-15 was 19.9 µM; in the experiment on UACC-257, 45.7 µM (inactive); in the experiment with SF-539, > 100 µM (inactive); in the experiment on SK-MEL-28, > 100 µM (inactive); with HCT-116, 36 µM (inactive); in the experiment with 786-0, 20.8 µM (inactive). The GI50 in the experiment with SNB-75 was 40.4 µM (inactive); in the experiment on HL-60 it was 30.3 µM (inactive); with SR, 18.7 µM (inactive).
With `CCOC(=O)c1cc(C(=O)O)c(=O)n2c1[nH]c1ccccc12`, the GI50 with CAKI-1 was > 100 µM (inactive); in the experiment with NCI-H522, 26.7 µM (inactive); with RPMI-8226 it was 46.3 µM (inactive); in the experiment on HCC 2998 it was > 100 µM (inactive); in the experiment on HCT-15, 46.7 µM; in the experiment with UACC-257, > 100 µM (inactive). Further, the GI50 with SF-539 is 36.4 µM (inactive); with SK-MEL-28, 26.2 µM (inactive); with HCT-116, 40.7 µM (inactive); with 786-0 it was > 100 µM (inactive); with SNB-75, 31.8 µM (inactive); in the experiment on HL-60, > 100 µM (inactive).
As for `CC1(C)CC[C@]2(C)[C@@H](O)C[C@]3(C)C(=CC[C@@H]4[C@@]5(C)CC[C@H](O)C(C)(C)[C@@H]5CC[C@]43C)[C@@H]2C1`, the GI50 was 97.3 µM (inactive) in the experiment on OVCAR-5; 35 µM (inactive) with NCI-H226; 29 µM (inactive) in the experiment with PC-3; 40 µM (inactive) with NCI/ADR-RES; 34.5 µM (inactive) with CAKI-1; 25.7 µM (inactive) with NCI-H522. Also, the GI50 with HCT-15 is 81.1 µM; with UACC-257 it was 49.5 µM (inactive); in the experiment on SK-MEL-28, > 100 µM (inactive); in the experiment with HCT-116 it was 41.5 µM (inactive); with 786-0, 33.3 µM (inactive); with MCF7, 37.9 µM (inactive). Moreover, the values for the GI50 in the experiment with HL-60, with MDA-N and in the experiment with DU-145 were > 100 µM (inactive), > 100 µM (inactive) and 40.6 µM (inactive), respectively.
Regarding `COc1ccc(N[C@H](C[S+]([O-])c2ccc(C)cc2)C(F)(F)C(F)(F)F)cc1` (stereo partly specified), the GI50 is > 100 µM (inactive) in the experiment on OVCAR-5; 31 µM (inactive) with NCI-H226; > 100 µM (inactive) in the experiment on NCI/ADR-RES; > 100 µM (inactive) in the experiment on CAKI-1; 71.4 µM (inactive) with NCI-H522; > 100 µM (inactive) with RPMI-8226. Besides, the GI50 is > 100 µM (inactive) in the experiment on HCC 2998; more than 100 µM in the experiment with HCT-15; > 100 µM (inactive) with UACC-257; 64.6 µM (inactive) with SF-539; > 100 µM (inactive) with SK-MEL-28; 52.4 µM (inactive) in the experiment with HCT-116. In addition, the GI50 with 786-0 was 65.8 µM (inactive); with MCF7, > 100 µM (inactive); in the experiment with SNB-75 it was 21 µM (inactive); in the experiment with HL-60, > 100 µM (inactive); with MDA-N, > 100 µM (inactive); with DU-145, > 100 µM (inactive).
Take `Cc1ccc(/C=C/C(=O)C(C)C)cc1`: the GI50 with OVCAR-5 was 18.4 µM (inactive); with NCI-H522, 24.8 µM (inactive); with RPMI-8226 it was 27.9 µM (inactive); in the experiment with HCC 2998 it was > 100 µM (inactive); with UACC-257, 53.6 µM (inactive); in the experiment on SK-MEL-28, > 100 µM (inactive). For the same molecule, the results for the GI50 in the experiment with 786-0, with SNB-75 and with SR were 55 µM (inactive), 35.2 µM (inactive) and 31.8 µM (inactive), respectively.
On to `NCc1ccccc1-c1c2nc(c(-c3ccccc3CN)c3ccc([nH]3)c(-c3ccccc3CN)c3nc(c(-c4ccccc4CN)c4ccc1[nH]4)C=C3)C=C2`, for which the GI50 with OVCAR-5 is 13.9 µM (inactive); in the experiment with NCI-H226, 13.9 µM (inactive); with RPMI-8226, 12.4 µM (inactive); in the experiment on HCC 2998, 25.9 µM (inactive); in the experiment on HCT-15, 22 µM; in the experiment with UACC-257, 20.3 µM (inactive). In addition, the GI50 was 19 µM (inactive) with SK-MEL-28; 13.7 µM (inactive) with HCT-116; 5.96 µM (inactive) in the experiment with SNB-75; 14.5 µM (inactive) in the experiment with HL-60; > 10 µM (inactive) in the experiment with SR.
Consider `O=C1C(=O)N(C2CCCCC2)C(=S)N1C1CCCCC1`, for which the GI50 in the experiment with OVCAR-5 was > 100 µM (inactive); in the experiment with NCI-H226 it was > 100 µM (inactive); with PC-3, > 100 µM (inactive); with NCI/ADR-RES, > 100 µM (inactive); in the experiment with CAKI-1, > 100 µM (inactive); in the experiment on NCI-H522, 7.76 µM (inactive). For the same molecule, the GI50 in the experiment on RPMI-8226 was > 100 µM (inactive); in the experiment on HCC 2998, > 100 µM (inactive); in the experiment with HCT-15, more than 100 µM; in the experiment on UACC-257, > 100 µM (inactive); with SF-539 it was > 100 µM (inactive); in the experiment on SK-MEL-28 it was > 100 µM (inactive). Moreover, the GI50 in the experiment on HCT-116, in the experiment on 786-0, in the experiment on SNB-75, with HL-60, in the experiment on SR and in the experiment on MDA-N was > 100 µM (inactive) each time. In addition, the GI50 with DU-145 was > 100 µM (inactive).
Regarding `COC(=O)C1=C(O)C(C(=O)OC)[C@@]2(O)[C@@H](C(=O)OC)[C@H](C)C[C@@H]1[C@@H]2C(=O)OC` (stereo partly specified), the GI50 was 30.5 µM (inactive) in the experiment on OVCAR-5; 39.3 µM (inactive) with NCI-H226; 25.2 µM (inactive) in the experiment with NCI-H522; 23.8 µM (inactive) in the experiment on RPMI-8226; 16.6 µM (inactive) with HCC 2998; 25.9 µM in the experiment on HCT-15. Besides, the GI50 in the experiment on UACC-257 was 63.1 µM (inactive); in the experiment with SF-539 it was 18.4 µM (inactive); with SK-MEL-28, 46.2 µM (inactive); with HCT-116, 35.5 µM (inactive); in the experiment on MCF7, 34.8 µM (inactive); with SNB-75, 22.9 µM (inactive). The GI50 with HL-60 is 25.9 µM (inactive); in the experiment with SR it was 21.3 µM (inactive); with MDA-N, 15.2 µM (inactive); in the experiment with DU-145, 20.2 µM (inactive).
Turning to `CSc1ccccc1P(c1ccccc1SC)c1ccccc1SC`, the GI50 in the experiment with OVCAR-5 is > 100 µM (inactive); in the experiment on NCI-H226, > 100 µM (inactive); in the experiment with NCI/ADR-RES it was > 100 µM (inactive); in the experiment on CAKI-1 it was > 100 µM (inactive); in the experiment on RPMI-8226 it was > 100 µM (inactive); in the experiment with HCT-15, more than 100 µM. Further, the GI50 with SF-539, in the experiment on SK-MEL-28, with HCT-116, with 786-0, with MCF7 and with SR was > 100 µM (inactive) throughout. The GI50 with MDA-N and in the experiment with DU-145 was > 100 µM (inactive) throughout.
For `CCc1cccc(C)c1NC(=O)C(=O)CC(=O)c1ccc(Cl)s1`, the GI50 in the experiment with NCI-H226 is > 100 µM (inactive); in the experiment on CAKI-1 it was > 100 µM (inactive); in the experiment with HCC 2998, > 100 µM (inactive); in the experiment with HCT-15, more than 100 µM; with UACC-257, > 100 µM (inactive); with SF-539 it was > 100 µM (inactive). Further, the GI50 with SK-MEL-28, in the experiment on HCT-116, in the experiment with 786-0, in the experiment on SNB-75, in the experiment on HL-60 and in the experiment with SR was > 100 µM (inactive) in each case.
Take `CN(C)CCS/C(=N\c1ccccc1)N1CCCCC1`: the GI50 in the experiment on OVCAR-5 was 17.6 µM (inactive); in the experiment on NCI-H226, 7.41 µM (inactive); in the experiment on CAKI-1, 47.6 µM (inactive); in the experiment on NCI-H522 it was 14.7 µM (inactive); with RPMI-8226 it was 22.3 µM (inactive); in the experiment with HCT-15, 16.4 µM. Further, the GI50 with UACC-257 was 14.7 µM (inactive); with SF-539, 20.2 µM (inactive); with SK-MEL-28 it was 14.8 µM (inactive); in the experiment on HCT-116, 19.7 µM (inactive); with 786-0, 16.3 µM (inactive); in the experiment with SNB-75 it was 21.8 µM (inactive). Besides, the results for the GI50 in the experiment on HL-60 and in the experiment on SR were 11.4 µM (inactive) and 18.6 µM (inactive), respectively.
Consider `O=C1CC2CC3OC3[C@H]3c4cc5c(cc4C(=O)N1C23)OCO5` (stereo partly specified), for which the GI50 with OVCAR-5, in the experiment with NCI-H226, in the experiment on CAKI-1, with NCI-H522, in the experiment with RPMI-8226 and in the experiment on HCC 2998 was > 100 µM (inactive) throughout. Moreover, the GI50 was more than 100 µM in the experiment with HCT-15; > 100 µM (inactive) in the experiment with SF-539; > 100 µM (inactive) with SK-MEL-28; > 100 µM (inactive) in the experiment on HCT-116; > 100 µM (inactive) in the experiment on HL-60; > 100 µM (inactive) with SR.
